Experimental data as given in patent publication US20260207717A1, “METHODS FOR TREATING INFANTILE-ONSET POMPE DISEASE IN PEDIATRIC PATIENTS” (Amicus Therapeutics, Inc., priority 2022, published 2026).

Experiments:
[1] = system: LAMP1, LC3, dysferlin in muscle fibers; assay: Biomarker changes (LAMP1, LC3, dysferlin) in muscle of Gaa KO mice; assay type: in vivo
Description: The therapeutic effects of ATB200 and miglustat were evaluated and compared against those of Alglucosidase alfa in Gaa KO mice. For the study, male Gaa KO (3- to 4-month old) and age-matched wild-type (WT) mice were used. Alglucosidase alfa was administered via bolus tail vein intravenous (IV) injection. In the co-administration regimen, miglustat was administered via oral gavage (PO) 30 minutes prior to the IV injection of ATB200. Treatment was given biweekly. Treated mice were sacrificed after 14 days from the last administration and various tissues were collected for further analysis. Table 11 summarizes the study design:
Tissue samples were also analyzed for biomarker changes following the methods discussed in: Khanna R, et al. (2012), “The pharmacological chaperone [i.e., enzyme stabilizer] […]
Similarly, intense LC3-positive aggregates in the muscle fibers of untreated Gaa KO mice signify the presence of autophagic zones and autophagy build-up. […] A similar observation was made when the expression of LC3 was assessed using western blot. […]
Dysferlin, a protein involved in membrane repair and whose deficiency/mistrafficking is associated with a number of muscular dystrophies, was also assessed.

[2] = system: single fibers isolated from the white gastrocnemius of Gaa KO mice; assay: Single fiber analysis (LAMP1/LC3 co-immunofluorescence); assay type: in vivo
Excerpt: FIG. 17 depicts co-immunofluorescent staining of LAMP1 (green) (see for example, “B”) and LC3 (red) (see, for example, “A”) in single fibers isolated from the white gastrocnemius of Gaa KO mice treated with a vehicle, alglucosidase alfa, or ATB200. “C” depicts clearance of autophagic debris and absence of enlarged lysosome. A minimum of 30 fibers were examined from each animal.
As a result, a significant portion of muscle fibers analyzed (36-60%) from ATB200-treated mice appeared normal or near-normal.

[3] = system: adult subjects with late-onset Pompe disease (LOPD); assay: ATB200-03 (PROPEL) phase 3 trial, efficacy; assay type: in vivo, human; details: for absolute decline in percent-predicted FVC: 52 weeks; for 6MWD Baseline / FVC (% predicted) Baseline: before treatment
Description: Efficacy Analyses. The primary efficacy endpoint (i.e., change from baseline to Week 52 in 6MWD) was analyzed using a parametric analysis of covariance (ANCOVA) model to compare between the new treatment and the control. […] However, the baseline 6MWD could not be used in the model twice (both as a continuous and a categorical variable) due to the expected high point biserial correlation between them. Thus, the 6MWD continuous variable remained in the model but the categorical 6MWD was removed.

[4] = system: creatine kinase (CK), urinary hexose tetrasaccharide (Hex4); assay: ATB200-03 (PROPEL) trial, biomarkers; assay type: in vivo, human; details: for mean urinary Glc4 concentration: ERT-experienced patients
Description: Pharmacodynamic endpoints were as follows: • change from baseline to Week 52 in serum CK level • change from baseline to Week 52 in urinary Hex4 level

[5] = system: adult subjects with late-onset Pompe disease (LOPD); assay: ATB200-03 (PROPEL) trial, safety; parameters: species or system human; details: in vivo
Excerpt: Concomitant medications and nondrug therapies were also be recorded.
Safety Analyses. Safety data was summarized using counts and percentages for categorical data and descriptive statistics (mean, standard deviation, median, minimum, maximum) for continuous data. • Efficacy Results from the ATB200-03 Trial

[6] = system: LOPD population (ERT-naïve and ERT-experienced); assay: Indirect treatment comparison, multi-level network meta regression (ML-NMR); parameters: species or system human; details: base-case scenario, sensitivity analysis (RCT data only, FIGS. 66, 67)
Description: Moreover, a comparison of three randomized clinical trials (LOTS: alglucosidase alfa vs placebo; COMET: avalglucosidase alfa vs alglucosidase alfa; and PROPEL: cipaglucosidase alfa/miglustat vs alglucosidase alfa) share 6MWD and % predicted FVC as key primary or secondary endpoints. Using patient-level data from the PROPEL randomized clinical trial (RCT) plus aggregate published data from other RCTs, Phase I/II and open label extension trials, a multi-level network meta-regression was conducted, adjusting for various baseline covariates including previous ERT duration. The base case scenario had covariates resembling the PROPEL population (naïve and ERT-experienced) and analyzed 6MWD and FVC change from baseline at 52 weeks. […]
A systematic literature review (SLR) was conducted to identify relevant published clinical studies of ERTs in LOPD. Outcomes assessed were change from baseline in 6-minute walking distance (6MWD) (m) and in forced vital capacity (FVC; % predicted) at week 52, acknowledged by clinicians, HTA agencies and payers as key LOPD trial endpoints. […]
A base-case scenario was evaluated in which all covariates were set to the target population of the PROPEL trial. […]

[7] = system: subjects with Pompe disease; details: LOPD, systematic review (Toscano and Schoser 2013); cited from earlier work
[8] = ERT treatment naive population, listed as Alglucosidase alfa
[9] = overall ERT switch and ERT naïve population

Substance: [199-arginine,223-histidine]prepro-α-glucosidase (human) [alglucosidase alfa]
- LC3 II levels (western blot), effect on autophagy [1]: modest
- Fibers with Autophagy Buildup [2]: >90%
- Fibers with Normal or Near-normal Appearance [2]: <10%
- 6MWD CFBL at Week 52 ([3]; ERT switch population): 0.0 m
- FVC (% predicted) CFBL at Week 52 ([3]; ERT switch population): −4.0 (0.9) % predicted
- absolute decline in percent-predicted FVC ([3]; ERT switch population): 4.0%
- 6MWD Baseline ([3]; ERT switch population): 334.6 (114.0) m
- FVC (% predicted) Baseline ([3]; ERT switch population): 67.5 (21.0) % predicted
- 6MWD CFBL at Week 52 ([3]; ERT switch population, listed as Alglucosidase alfa): 0.0 (7.2) m
- 6MWD CFBL at Week 52 ([3]; ERT treatment naive population): 38 m
- FVC (% predicted) CFBL at Week 52 ([3]; ERT treatment naive population): −3.6 % predicted
- 6MWD Baseline ([3]; ERT treatment naive population): 420.9 (135.7) m
- FVC (% predicted) Baseline ([3]; ERT treatment naive population): 79.1 (22.6) % predicted
- 6MWD CFBL at Week 52 [3, 8]: +38.3 (11.1) m
- FVC (% predicted) CFBL at Week 52 [3, 8]: −3.6 (1.8) % predicted
- mean change (SD) in MMT score for lower extremities ([3]; baseline to week 52): 0.9 (2.58)
- mean change in total GSGC score ([3]; baseline to week 52): 0.77 (1.8)
- 6MWD CFBL at Week 52 [3, 9]: 7 m
- 6MWD Baseline [3, 9]: 351.0 (121.3) m
- 6MWD CFBL at Week 52 ([3]; overall ERT switch and ERT naïve population, listed as Alglucosidase alfa): +7.2 (6.6) m
- GSGC compared to alglucosidase alfa ([3]; overall and ERT-experienced populations, week 52): worsening
- FVC (% predicted) CFBL at Week 52 ([3]; overall population): −4.0 (0.8) % predicted
- absolute decline in percent-predicted FVC ([3]; overall population): 4.0%
- FVC (% predicted) Baseline ([3]; overall population): 69.7 (21.5) % predicted
- mean urinary Glc4 concentration ([4]; Week 52): 9.1 mmol/mol
- mean urinary Glc4 concentration ([4]; baseline): 7.2 mmol/mol
- mean change of CK ([4]; after 52 weeks): +15.6%
- mean change of urine Hex-4 ([4]; combined ERT switch and ERT naïve population, after 52 weeks): +11.0%
- patients who discontinued treatment due to an adverse event [5]: 2.6%
- patients with injection associated reactions (IARs) [5]: 26%
- relative effect on 6MWT and FVC [6]: numerically favorable versus placebo
- subjects without initial improvement during treatment [7]: > 30%
